Experimental data as given in patent publication US20110021505A1, “Use of sulfonyl-substituted 2-sulfonylaminobenzoic acid N-phenylamides in the treatment of pain” (SANOFI-AVENTIS DEUTSCHLAND GMBH, priority 2007, published 2011).

Test system: thermal hyperalgesia of the hind paws induced by injection of carrageenan
Assay: Anti-hyperalgesic effect in the carrageenan model of inflammatory triggered thermal hyperalgesia in mice after oral administration
Type: in vivo, male C57B6 mice
Design: key to Statistical evaluation vs. control (AUC1 h-6 h of PWL): ns: not significant; ***: significant, p < 0.0001 (ANOVA & Dunnett)
Conditions: for Mean PWL (paw withdrawal latency) ± SEM: N=6 paws; for Statistical evaluation vs. control (AUC1 h-6 h of PWL): 1-way ANOVA & Dunnett; for AUC1 h-6 h of PWL (mean ± SEM): 1 h to 6 h after carrageenan, N=6
Procedure: In this in vivo model the anti-hyperalgesic effect was determined in mice in which a thermal hyperalgesia of the hind paws had been induced by injection of carrageenan, by measuring the paw withdrawal latency (PWL), i.e. the time until the mouse withdrew its hind paw from a heated spot of the ground. These experiments and all other animal experiments were performed in accordance with animal protection law and guidelines for the use of experimental animals.
Three test groups and one control group of animals were used each consisting of three male C57B6 mice. 1 h before injection of carrageenan, either the test compound or vehicle was administered to the animals orally by gavage. In the test groups, mice received 100 μl/10 g body weight of a suspension of the test compound in vehicle MC/T80 comprising 0.1 mg/ml, 0.3 mg/ml or 1 mg/ml (prepared as described in pharmaceutical example A) for attaining a dosage of 1 mg/kg body weight, 3 mg/kg body weight and 10 mg/kg body weight, respectively. In the control group, mice analogously received 100 μl/10 g body weight of vehicle MC/T80. For induction of hind paw inflammatory pain, then in all groups carrageenan (Sigma, Deisenhofen, Germany) at a concentration of 2% in 10 μl of saline was injected into the plantar aspect of both hind paws of the mice under slight general isofluran anesthesia. 1 h before injection of carrageenan, i.e. immediately before administration of the test compound or vehicle, and 1 h, 2 h, 4 h and 6 h after injection of carrageenan, thermal hyperalgesia was determined.
Thermal hyperalgesia was determined by measuring the paw withdrawal latency (PWL) by means of the automatic plantar test, first described for rats in K. Hargreaves et al., Pain 32 (1988), 77-88, and used in an adapted version fitted to mice described in H. Gühring et al., J. Neurosci. 20 (2000), 6714-6720. To restrict animal movement, 10.5×13.0×4.5 cm test cages were used. Instead of a glass floor, a metal grid bottom was used. PWL (in seconds) was determined on exposure of the paw to a defined thermal stimulus using a commercially available apparatus (Plantar Test, Ugo Basile Biological Research Apparatus, Comerio, Italy) fitted with a mini camera to ensure proper placement of the infrared heat below the hind paw of interest. The timer which measured the duration of reflected infrared light by the hind paw was started by the investigator and stopped once the animal shook the affected paw. A cut-off was set at 16 seconds to prevent tissue damage. For each hind paw and each time point, the mean of three to four PWL measurements was determined.
The given PWL values (in seconds) are the mean±SEM (standard error of the mean) of the PWL values obtained for each hind paw of each animal (N (number of paws)=6) of the indicated dosage group at the time points 1 h, 2 h, 4 h and 6 h after injection of carrageenan, as well as the baseline PWL values (BL) determined 1 h before administration of the test compound or vehicle and injection of carrageenan.
For the statistical analysis, PWL values were used in two ways, first with a 2-way ANOVA test based on the PWL values and second with a 1-way ANOVA test based on the area under the curve (AUC) values for the time period of 6 h after injection of carrageenan. A repeated measures 2-way ANOVA test (factor treatment and repeated measures factor time) was performed on PWL measurements. In case the interaction (treatment×time) was statistically significant, a Winer complementary analysis was done to investigate the effect of treatment for each time point. A Dunnett's test was used to study the potential differences between the control group and the test groups. […]

SMILES: O=C(Nc1ccc(S(=O)(=O)N2CCOCC2)cc1)c1cc(Cl)ccc1NS(=O)(=O)c1ccc(Cl)s1.[Na] [Example 94, 5-Chloro-2-(5-chloro-thiophene-2-sulfonylamino)-N-(4-(morpholine-4-sulfonyl)-phenyl)-benzamide sodium salt]
- Mean PWL (paw withdrawal latency) ± SEM (1 mg/kg body weight group, BL baseline before administration and carrageenan): 11.08 ± 0.40 s
- Statistical evaluation vs. control (AUC1 h-6 h of PWL) (1 mg/kg body weight oral): ns
- Mean PWL (paw withdrawal latency) ± SEM (1 mg/kg body weight oral, 1 h after carrageenan): 4.08 ± 0.62 s
- AUC1 h-6 h of PWL (mean ± SEM) (1 mg/kg body weight oral): 19.57 ± 2.19
- Mean PWL (paw withdrawal latency) ± SEM (1 mg/kg body weight oral, 2 h after carrageenan): 3.80 ± 0.28 s
- Mean PWL (paw withdrawal latency) ± SEM (1 mg/kg body weight oral, 4 h after carrageenan): 3.98 ± 0.79 s
- Mean PWL (paw withdrawal latency) ± SEM (1 mg/kg body weight oral, 6 h after carrageenan): 3.86 ± 0.48 s
- Anti-hyperalgesic effect on PWL vs. control (2-way ANOVA, Dunnett) (3 mg/kg and 10 mg/kg body weight oral, from 1 h to 4 h after carrageenan injection): Statistically significant anti-hyperalgesic effects
- Mean PWL (paw withdrawal latency) ± SEM (3 mg/kg body weight group, BL baseline before administration and carrageenan): 10.69 ± 0.27 s
- Statistical evaluation vs. control (AUC1 h-6 h of PWL) (3 mg/kg body weight oral): *** (significant, p < 0.0001 (ANOVA & Dunnett))
- Mean PWL (paw withdrawal latency) ± SEM (3 mg/kg body weight oral, 1 h after carrageenan): 8.42 ± 0.53 s
- AUC1 h-6 h of PWL (mean ± SEM) (3 mg/kg body weight oral): 44.87 ± 1.21
- Mean PWL (paw withdrawal latency) ± SEM (3 mg/kg body weight oral, 2 h after carrageenan): 10.16 ± 0.33 s
- Mean PWL (paw withdrawal latency) ± SEM (3 mg/kg body weight oral, 4 h after carrageenan): 10.84 ± 0.63 s
- Mean PWL (paw withdrawal latency) ± SEM (3 mg/kg body weight oral, 6 h after carrageenan): 3.74 ± 0.47 s
- Mean PWL (paw withdrawal latency) ± SEM (10 mg/kg body weight group, BL baseline before administration and carrageenan): 10.97 ± 0.40 s
- Statistical evaluation vs. control (AUC1 h-6 h of PWL) (10 mg/kg body weight oral): *** (significant, p < 0.0001 (ANOVA & Dunnett))
- Mean PWL (paw withdrawal latency) ± SEM (10 mg/kg body weight oral, 1 h after carrageenan): 12.46 ± 0.91 s
- AUC1 h-6 h of PWL (mean ± SEM) (10 mg/kg body weight oral): 48.70 ± 2.06
- Mean PWL (paw withdrawal latency) ± SEM (10 mg/kg body weight oral, 2 h after carrageenan): 11.24 ± 0.77 s
- Mean PWL (paw withdrawal latency) ± SEM (10 mg/kg body weight oral, 4 h after carrageenan): 11.11 ± 0.54 s
- Mean PWL (paw withdrawal latency) ± SEM (10 mg/kg body weight oral, 6 h after carrageenan): 3.40 ± 0.46 s
